SMILES strings stand for the structures.

This experiment concerns HBV. Kind of experiment: HBV inhibition assay in HepAD38 cells (extracellular HBV DNA by direct qPCR). It is filed as cell-based. The note with it: Hepatitis B virus, compound at 1 µM, 96 hours, relative to non-treated reference, read-out: Anti HBV Activity (conc µM). The procedure, abridged: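 HepAD38 cells (HepG2, tetracycline-off HBV) induced in tetracycline-free medium, treated 96 h at 37 °C with compound, 0.5% DMSO. Extracellular HBV DNA quantified by direct SYBR qPCR of lysed supernatant, as % of untreated; EC50 from 8-point 1:2 curves; cytotoxicity by CellTiter-Blue.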
A general note: Quantitative PCR measures a nucleic acid by following its amplification.
Regarding `O=C(Nc1cc(F)c(F)c(F)c1)c1ccc2c(c1)S(=O)(=O)N1CCOCC1CN2` (stereo not drawn) [Example E108, N-(3,4,5-trifluorophenyl)-1,3,4,11,12,12a-hexahydrobenzo[f][1,4]oxazino[4,3-b][1,2,5]thiadiazepine-8-carboxamide 6,6-dioxide], the inhibition at 1 µM was less than 50%.

Consider `O=C(Nc1cc(F)c(F)c(F)c1)c1ccc2c(c1)S(=O)(=O)n1ccnc1CN2` [Example E109, N-(3,4,5-trifluorophenyl)-10,11-dihydrobenzo[f]imidazo[1,2-b][1,2,5]thiadiazepine-7-carboxamide 5,5-dioxide], for which the inhibition at 1 µM was less than 50%. The same measure for `O=C(Nc1ccc(F)c(F)c1)c1ccc2c(c1)S(=O)(=O)N1CCN2CC1` [Example E110, N-(3,4-difluorophenyl)-3,4-dihydro-2,5-ethanobenzo[f][1,2,5]thiadiazepine-8-carboxamide 1,1-dioxide]: less than 50%. Consider `O=C(Nc1cc(F)c(F)c(F)c1)c1ccc2c(c1)S(=O)(=O)N1CCCCC1CO2` (stereo not drawn) [Example E111, N-(3,4,5-trifluorophenyl)-1,2,3,4,12,12a-hexahydrobenzo[b]pyrido[1,2-e][1,4,5]oxathiazepine-8-carboxamide 6,6-dioxide], for which the inhibition at 1 µM was less than 50%. As to `O=C(Nc1cc(F)c(F)c(F)c1)c1ccc2c(c1)S(=O)(=O)N1CCCC[C@@H]1CO2` [Example E112, (R)-N-(3,4,5-trifluorophenyl)-1,2,3,4,12,12a-hexahydrobenzo[b]pyrido[1,2-e][1,4,5]oxathiazepine-8-carboxamide 6,6-dioxide], the inhibition at 1 µM was less than 50%. The same measure for `O=C(Nc1cc(F)c(F)c(F)c1)c1ccc2c(c1)S(=O)(=O)N1CCCC[C@H]1CO2` [Example E113, (S)-N-(3,4,5-trifluorophenyl)-1,2,3,4,12,12a-hexahydrobenzo[b]pyrido[1,2-e][1,4,5]oxathiazepine-8-carboxamide 6,6-dioxide]: less than 50%; for `CC(C)(C)OC(=O)N1CCN2C(COc3ccc(C(=O)Nc4cc(F)c(F)c(F)c4)cc3S2(=O)=O)C1` (stereo not drawn) [Example E114, tert-butyl 8-((3,4,5-trifluorophenyl)carbamoyl)-3,4,12,12a-tetrahydrobenzo[b]pyrazino[1,2-e][1,4,5]oxathiazepine-2(1H)-carboxylate 6,6-dioxide]: less than 50%; for `O=C(Nc1cc(F)c(F)c(F)c1)c1ccc2c(c1)S(=O)(=O)N1CCNCC1CO2` (stereo not drawn) [Example E115, N-(3,4,5-trifluorophenyl)-1,2,3,4,12,12a-hexahydrobenzo[b]pyrazino[1,2-e][1,4,5]oxathiazepine-8-carboxamide 6,6-dioxide]: less than 50%. In the case of `CC(=O)N1CCN2C(COc3ccc(C(=O)Nc4cc(F)c(F)c(F)c4)cc3S2(=O)=O)C1` (stereo not drawn) [Example E116, 2-acetyl-N-(3,4,5-trifluorophenyl)-1,2,3,4,12,12a-hexahydrobenzo[b]pyrazino[1,2-e][1,4,5]oxathiazepine-8-carboxamide 6,6-dioxide], the inhibition at 1 µM is less than 50%.

Regarding `O=C(Nc1cc(F)c(F)c(F)c1)c1ccc2c(c1)S(=O)(=O)N1CC(C1)O2` [Example E117, N-(3,4,5-trifluorophenyl)-3,4-dihydro-2,4-methanobenzo[b][1,4,5]oxathiazepine-8-carboxamide 1,1-dioxide], the inhibition at 1 µM was less than 50%. Regarding `O=C(Nc1cc(F)c(F)c(F)c1)c1ccc2c(c1)S(=O)(=O)N1CCC(C1)O2` (stereo not drawn) [Example E118, N-(3,4,5-trifluorophenyl)-4,5-dihydro-3H-2,5-methanobenzo[b][1,4,5]oxathiazocine-9-carboxamide 1,1-dioxide], the inhibition at 1 µM was less than 50%. As for `O=C(Nc1ccc(F)c(F)c1)c1ccc2c(c1)S(=O)(=O)NC(CO)N2` (stereo not drawn) [Example E119, N-(3,4-difluorophenyl)-3-(hydroxymethyl)-3,4-dihydro-2H-benzo[e][1,2,4]thiadiazine-7-carboxamide 1,1-dioxide], the inhibition at 1 µM is more than 50%.
